Experimental findings from ChEMBL document CHEMBL4261594, “Unexpected AChE inhibitory activity of (2E)α,β-unsaturated fatty acids” (Bioorg Med Chem Lett, 2018) are described below.

For experiment [1], the target named is T1, Acetylcholinesterase (Electrophorus electricus, UniProt O42275). The experiment can be described thus: Mixed type inhibition of electric eel AChE using acetylthiocholine iodide as substrate preincubated for 20 mins followed by substrate addition and measured at 1 min intervals for 30 mins by Cornish-Bowden plot analysis.
T1 sequence (O42275 whole entry): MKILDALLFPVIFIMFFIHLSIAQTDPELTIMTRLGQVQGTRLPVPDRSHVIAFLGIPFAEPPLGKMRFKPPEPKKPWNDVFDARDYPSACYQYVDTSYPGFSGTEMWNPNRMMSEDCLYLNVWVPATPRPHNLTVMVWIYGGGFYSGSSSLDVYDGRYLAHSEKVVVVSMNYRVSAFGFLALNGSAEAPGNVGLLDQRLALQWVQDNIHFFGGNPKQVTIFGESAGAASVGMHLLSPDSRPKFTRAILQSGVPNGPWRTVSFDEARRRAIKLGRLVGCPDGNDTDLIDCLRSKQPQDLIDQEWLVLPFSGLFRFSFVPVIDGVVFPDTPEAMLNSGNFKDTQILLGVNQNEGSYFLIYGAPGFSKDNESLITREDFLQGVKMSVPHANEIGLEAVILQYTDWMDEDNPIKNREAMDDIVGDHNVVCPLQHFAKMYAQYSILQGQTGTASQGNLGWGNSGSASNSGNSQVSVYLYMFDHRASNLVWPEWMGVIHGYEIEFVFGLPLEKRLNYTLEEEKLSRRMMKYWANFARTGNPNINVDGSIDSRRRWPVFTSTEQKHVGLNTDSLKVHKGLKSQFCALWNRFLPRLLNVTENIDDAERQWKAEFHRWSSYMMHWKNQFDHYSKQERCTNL
Experiment [2] concerns the target T1, Acetylcholinesterase. The experiment can be described thus: Inhibition of electric eel AChE using acetylthiocholine iodide as substrate preincubated for 20 mins followed by substrate addition and measured at 1 min intervals for 30 mins by Ellman's method. (In Ellman's method for cholinesterases, released thiocholine reacts with DTNB.)
In experiment [3] the target is T1, Acetylcholinesterase. The experiment can be described thus: Mixed type inhibition of electric eel AChE using acetylthiocholine iodide as substrate preincubated for 20 mins followed by substrate addition and measured at 1 min intervals for 30 mins by Dixon plot analysis.

The term Ki denotes the dissociation constant of the complex between target and ligand, obtained from inhibition or displacement. The low end stands for higher affinity, the high end for lower affinity. Usually IC50 stands for the midpoint of a concentration-inhibition curve. As to `CCCCCCCCCCCCCCCCC/C=C/C(=O)O`, the results for the Ki on Acetylcholinesterase [1] and at Acetylcholinesterase [3] were 7.15 µM and 1.51 µM, respectively. The IC50 on Acetylcholinesterase [2] (read-out: IC50) is 5 µM.
For the molecule `CCCCCCCCCCCCCCCCCCC/C=C/C(=O)O`, the IC50 at Acetylcholinesterase [2] (read-out: IC50) was 11.7 µM.
As for `CCCCCCCCCCCCC/C=C/C(=O)O`, the IC50 at Acetylcholinesterase [2] (read-out: IC50) is 7.9 µM.
Take `CCCCCCCCCCCCCCC/C=C/C(=O)O`: the Ki amounted to 5.51 µM on Acetylcholinesterase [1] and 3.21 µM at Acetylcholinesterase [3]. Also, on Acetylcholinesterase [2] (read-out: IC50), the IC50 worked out at 4.3 µM.
For `CCCCCCCCCCCCCCCCCCCC(=O)O` [ARACHIDIC ACID], the IC50 on Acetylcholinesterase [2] (read-out: IC50) worked out at 12.8 µM.
On to `CCCCCCCCCCCCCCCCCCCCCC(=O)O` [BEHENIC ACID], for which the IC50 result against Acetylcholinesterase [2] is “Nd(Insoluble)”.
Regarding `CCCCCCCCCCCCCCCC(=O)O` [PALMITIC ACID], on Acetylcholinesterase [2] (read-out: IC50), the IC50 turned out to be 10.1 µM.
Consider `CCCCCCCCCCCCCCCCCC(=O)O` [STEARIC ACID], for which the Ki came to 3.62 µM on Acetylcholinesterase [1] and 4.4 µM on Acetylcholinesterase [3]. Also, the IC50 at Acetylcholinesterase [2] (read-out: IC50) was 7.5 µM.
